# Measurements: PMC6301270 (MedChemComm, 2018)
# “Also recorded” adds a separate entry of the source. Like-named read-outs stand apart in the source and are kept apart here.
# Key:
# [1] = test system: T.b. brucei (strain 427) bloodstream form parasites; test: T.b. brucei single concentration screen (10 μM); conditions: Trypanosoma brucei, read-out: T.b.brucei % viability (10 µM)
# [2] = test system: T.b. brucei (strain 427) bloodstream form parasites; test: Trypanosoma brucei assay, dose–response (this study); assay type: cell-based; conditions: for IC50: Trypanosoma brucei; for Selectivity index: calculated as IC50(HeLa)/IC50(T.bb)
# HeLa cells = test: HeLa cell assay (cytotoxicity); assay type: cell-based; conditions: Homo sapiens, HeLa cells, 48 hours, resazurin, read-out: HeLa IC50
# Description: HeLa cells were cultured in DMEM medium supplemented with 10% fetal bovine serum and antibiotics (penicillin/streptomycin/amphotericin B) at 37 °C in a 5% CO2 incubator. On the day prior to compound addition, cells were plated in 96-well plates at 2 × 10^4 cells per well. Compounds were added to the cells in 3-fold serial dilutions and incubation at 37 °C in a 5% CO2 incubator continued for 48 hours. Twenty μl resazurin reagent (0.5 mM resazurin in phosphate-buffered saline) was added to each well and, after a 2-hour incubation, fluorescence (Exc560/Em590) was measured in a plate reader. Percentage cell viability in drug-treated wells was calculated from the fluorescent readings obtained relative to those in wells containing control, untreated cells. Plots of % cell viability vs. log[compound] were used to determine IC50 values by non-linear regression analysis using GraphPad Prism.
# [3] = Table 1, kinetoplastid category, 48 hours at 37 °C, resazurin, read-out: T. brucei brucei IC50 (μM) This study
# [4] = Table 2, remaining Pathogen Box, 48 hours at 37 °C, resazurin, read-out: T. brucei brucei IC50 (μM) This study
# [5] = pIC50 values (M), read-out: pIC50 (T.b. brucei), this study (converted)
SMILES,viability at 10 µM [1] [%],"IC50 [2, 4] [µM]",IC50 (HeLa cells; Table 2) [µM],also measured
"CC1CCCCN1C(=O)NCCc1coc(-c2ccc(F)cc2)n1 (stereo not shown) [Compound 5, CC1CCCCN1C(=O)NCCc2coc(n2)c3ccc(F)cc3]",2.2,–,–,"IC50 [2, 3]: 0.05 µM; IC50 (HeLa cells; Table 1): > 25 µM"
"c1ccc(-c2nc(NC3CCCCC3)cc(C3CC3)n2)nc1 [Compound 35, C1CCC(CC1)Nc2cc(nc(n2)c3ccccn3)C4CC4]",2,0.83,> 25,"T.b. brucei inhibition in words, this study [2]: sub-micromolar range; also recorded: activity in the nanomolar range; IC50 [2, 5]: < 1 µM"
"Cc1ccc2[nH]c(C3CCCNC3)c(-c3ccncc3)c2c1 (stereo not shown) [Compound 36, Cc1ccc2[nH]c(C3CCCNC3)c(c4ccncc4)c2c1]",1,2.2,8.9,Selectivity index [2]: 4.0
"CCOC(=O)c1c(NC(=O)c2c(F)c(F)c(F)c(F)c2F)sc(C(N)=O)c1C [Compound 37, CCOC(=O)c1c(C)c(sc1NC(=O)c2c(F)c(F)c(F)c(F)c2F)C(=O)N]",7,11,> 25,Selectivity index [2]: > 2.2
"COC(=O)c1c(NC(=O)c2c(F)c(F)c(F)c(F)c2F)sc2c1CCCCC2 [Compound 38, COC(=O)c1c2CCCCCc2sc1NC(=O)c3c(F)c(F)c(F)c(F)c3F]",7,11,> 25,Selectivity index [2]: > 2.2
"O=C(Nc1nc(-c2ccccn2)cs1)c1cncn1-c1ccccc1 [Compound 41, O=C(Nc1nc(cs1)c2ccccn2)c3cncn3c4ccccc4]",1,1.1,5.1,Selectivity index [2]: 4.6
"CC(C)=CCC/C(C)=C\CNCCNC1C2CC3CC(C2)CC1C3 (stereo not shown) [Compound 42, CC(=CCC\C(=C/CNCCNC1C2CC3CC(CC1C3)C2)\C)C]",2,2.3,15,Selectivity index [2]: 6.5
"COc1cccc(-c2nc3c(N4CCCC4)cccc3n2CC2CCCN2)n1 (stereo not shown) [Compound 44, COc1cccc(n1)c2nc3c(cccc3n2CC4CCCN4)N5CCCC5]",4,4.2,22,Selectivity index [2]: 5.2
"Cc1cnc(N2CCN[C@@H](Cc3ccccc3)C2)nc1Oc1ccc(-n2ccnc2)cc1 [Compound 45, Cc1cnc(nc1Oc2ccc(cc2)n3ccnc3)N4CCN[C@@H](Cc5ccccc5)C4]",10,5.1,> 25,Selectivity index [2]: > 4.9
"COc1ccc2nccc(NC(=O)C3CCN(CCc4ccc(Cl)cc4)CC3)c2n1 [Compound 47, COc1ccc2nccc(NC(=O)C3CCN(CCc4ccc(Cl)cc4)CC3)c2n1]",7,29,> 25,–
"COc1ccc(OC)c(NCc2ccc3nc(N)nc(N)c3c2Cl)c1 [Compound 48, COc1ccc(OC)c(NCc2ccc3nc(N)nc(N)c3c2Cl)c1]",12,1.2,> 25,Selectivity index [2]: > 21
"Cc1cc(C2=NOC(c3cc(Cl)c(F)c(Cl)c3)(C(F)(F)F)C2)ccc1C(=O)NCc1ccc2c(c1)C(C)(C)OB2O (stereo not shown) [Compound 49, Cc1cc(ccc1C(=O)NCc2ccc3B(O)OC(C)(C)c3c2)C4=NOC(C4)(c5cc(Cl)c(F)c(Cl)c5)C(F)(F)F]",1,1.2,10,Selectivity index [2]: 8.3
"CC(C)n1nc(-c2cc3c(Cl)cccc3[nH]2)c2c(N)ncnc21 [Compound 50, CC(C)n1nc(-c2cc3c(Cl)cccc3[nH]2)c2c(N)ncnc12]",4,4.3,> 25,Selectivity index [2]: > 5.8
"CN(C)c1cc(NC(=O)Nc2ccccc2)c2ccccc2n1 [Compound 52, CN(C)c1cc(NC(=O)Nc2ccccc2)c3ccccc3n1]",1,4.7,> 25,Selectivity index [2]: > 5.3
"Cc1ccc2c(c1C)NC(=O)C21NN=C(c2ccccc2)S1 (stereo not shown) [Compound 54, Cc1ccc2c(NC(=O)C23NN=C(S3)c4ccccc4)c1C]",3,1,6.6,"T.b. brucei inhibition in words, this study [2]: sub-micromolar range; IC50 [2, 5]: < 1 µM; Selectivity index [2]: 6.6"
"CC[C@H]1CN2CCc3cc(OC)c(OC)cc3[C@@H]2C[C@@H]1C[C@H]1NCCc2cc(OC)c(OC)cc21 [Emetine, reference compound]",–,–,–,IC50 (HeLa cells; Table 1): 0.4 µM
"CCc1nn(C)c(C(=O)NCc2ccc(Oc3ccc(C)cc3)cc2)c1Cl [MMV688934, CCc1nn(C)c(C(=O)NCc2ccc(Oc3ccc(C)cc3)cc2)c1Cl]",101,–,–,–
"O=C(c1ccco1)N(CCCn1ccnc1)c1nc2c(Cl)cccc2s1 [MMV688936, Clc1cccc2sc(nc12)N(CCCn3ccnc3)C(=O)c4occc4]",92,–,–,–
"CCOc1ccc(-c2nc(CNCCc3ccc(F)cc3)cs2)cc1 [MMV688938, CCOc1ccc(cc1)c2nc(CNCCc3ccc(F)cc3)cs2]",63,–,–,–
"Cc1ccc2nc(C)c(-c3ccn(Cc4ccccc4)n3)n2c1 [MMV688939, Cc1ccc2nc(C)c(c3ccn(Cc4ccccc4)n3)n2c1]",101,–,–,–
"COc1cc(CN2CCC3(C=Cc4ccccc43)CC2)cc2c1OCO2 [MMV688941, COc1cc(CN2CCC3(CC2)C=Cc4ccccc34)cc5OCOc15]",114,–,–,–

SMILES,viability at 10 µM [1] [%],"IC50 [2, 4] [µM]",IC50 (HeLa cells; Table 2) [µM],also measured
"CC(C)(C)C(O)C(Oc1ccc(-c2ccccc2)cc1)n1cncn1 (stereo not shown) [MMV688942, CC(C)(C)C(O)C(Oc1ccc(cc1)c2ccccc2)n3cncn3]",79,–,–,–
"CC1COC(Cn2cncn2)(c2ccc(Oc3ccc(Cl)cc3)cc2Cl)O1 (stereo not shown) [MMV688943, CC1COC(Cn2cncn2)(O1)c3ccc(Oc4ccc(Cl)cc4)cc3Cl]",100,–,–,–
"Cc1cc(NC(=O)c2ccc(Oc3ccc(Cl)cc3O)o2)no1 [MMV688955, Cc1cc(NC(=O)c2ccc(Oc3ccc(Cl)cc3O)o2)no1]",88,–,–,–
"CCc1cc(=O)n(C)c(SC(C)C(=O)Nc2ccc(F)cc2)n1 (stereo not shown) [MMV688980, CCC1=CC(=O)N(C)C(=N1)SC(C)C(=O)Nc2ccc(F)cc2]",101,–,–,–
"Clc1ccc(CN2CCN(C3=NCCN3)CC2)cc1Cl [MMV689060, Clc1ccc(CN2CCN(CC2)C3=NCCN3)cc1Cl]",101,–,–,–
"CC(=O)Nc1ccc(-c2noc(CC3CCCN(Cc4cccc(F)c4C)C3)n2)cc1 (stereo not shown) [MMV689061, CC1=C(F)C=CC=C1CN2CCCC(CC3=NC(C4=CC=C(NC(C)=O)C=C4)=NO3)C2]",92,–,–,–
"FC(F)(F)c1ccc(N(c2cccnc2)C2CCN(c3ccc(C(F)(F)F)cn3)CC2)cc1 [MMV689243, FC(F)(F)c1ccc(cc1)N(C2CCN(CC2)c3ccc(cn3)C(F)(F)F)c4cccnc4]",103,–,–,–
"O=C([C@@H](c1ccc(Cl)cc1)c1cccnc1)N1CCN(c2ccc(C(F)(F)F)cc2)CC1 [MMV689244, FC(F)(F)c1ccc(cc1)N2CCN(CC2)C(=O)[C@@H](c3ccc(Cl)cc3)c4cccnc4]",108,–,–,–
"Nc1ncnc2c1ncn2C[C@@H](O)[C@@H](O)C(=O)O [MMV689255, Nc1ncnc2c1ncn2C[C@@H](O)[C@@H](O)C(=O)O]",111,–,–,–
"CC(c1cc(Cl)cc(Cl)c1)N(C)c1ncc2c(N)nc(N)nc2n1 (stereo not shown) [MMV689437, CC(N(C)c1ncc2c(N)nc(N)nc2n1)c3cc(Cl)cc(Cl)c3]",98,–,–,–
"CNc1cc(C)nc(C2CN(C(=O)c3n[nH]c4ccccc34)CCO2)c1 (stereo not shown) [MMV689709, O=C(N1CC(C2=CC(NC)=CC(C)=N2)OCC1)C3=NNC4=C3C=CC=C4]",87,–,–,–
"COc1ccc(Oc2ccc([C@@H](C)N(C)c3ncc4c(N)nc(N)nc4n3)cc2)cc1 [MMV690102, COc1ccc(Oc2ccc(cc2)[C@@H](C)N(C)c3ncc4c(N)nc(N)nc4n3)cc1]",42,–,–,–
"C[C@H](c1ccc2c(c1)CCCC2)N(C)c1ncc2c(N)nc(N)nc2n1 [MMV690103, C[C@@H](N(C)c1ncc2c(N)nc(N)nc2n1)c3ccc4CCCCc4c3]",26,–,–,–
"CCc1ccc(C(NCc2nc(N)nc(N(C)C)n2)C(C)C)cc1 (stereo not shown) [MMV1019989, CCc1ccc(cc1)C(NCc2nc(N)nc(n2)N(C)C)C(C)C]",92,–,–,–
"O=C(Nc1nc(-c2ccccn2)cs1)C1CC1c1ccccc1F (stereo not shown) [MMV1028806, Fc1ccccc1C2CC2C(=O)Nc3nc(cs3)c4ccccn4]",63,–,–,–
"CNC(=O)CNc1nc(-c2ccccn2)nc2scc(-c3ccccc3)c12 [MMV1029203, CNC(=O)CNc1nc(nc2scc(c3ccccc3)c12)c4ccccn4]",98,–,–,–
"CCNC(=O)C(C)Nc1nc(-c2cccnc2)nc2sc(C)c(C)c12 (stereo not shown) [MMV1037162, CCNC(=O)C(C)Nc1nc(nc2sc(C)c(C)c12)c3cccnc3]",85,–,–,–
"Cc1ccc(-c2nc(CN(Cc3ccccn3)C(C)C)cs2)o1 [MMV1088520, CC(C)N(Cc1ccccn1)Cc2csc(n2)c3oc(C)cc3]",72,–,–,–
"COc1cccn2c(C(=O)N3CCCCC3)c(C(F)(F)F)nc12 [MMV1110498, FC(F)(F)C1=C(C(N2CCCCC2)=O)N(C=CC=C3OC)C3=N1]",99,–,–,–
"Cc1cc(OCC(=O)Nc2ccc(C(C)C)cc2)n(C)c(=O)c1C#N [MMV1198433, CC(C)c1ccc(NC(=O)COC2=CC(=C(C#N)C(=O)N2C)C)cc1]",70,–,–,–
"N=C(N)c1ccc(OCCCCCOc2ccc(C(=N)N)cc2)cc1 [Pentamidine, reference compound]",–,–,–,"IC50 [2, 3]: 0.0031 µM"
